Experimental data taken from patent publication US9833497B2, “Human originated EGF domain proteins and use of the same” (CHENGDU SOURCEBIO LIMITED-LIABILITY COMPANY, priority 2013, dated 2017).

Key:
Assay type in all cases: cell-based
Proteus mirabilis = assay: MIC against Gram-negative bacteria: Proteus mirabilis; details: for MIC (μg/mL) P. mirabilis: 5×10^5 CFU/mL
Method in brief: (§1)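 Purified recombinant human EGF domain proteins are tested by broth dilution in LB against a 5×10^5 CFU/mL inoculum, with two-fold serial dilutions run in triplicate. Plates are incubated at 37° C with shaking, and the MIC is read as the lowest protein concentration without growth.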

E. coli BL21 = assay: MIC against Gram-negative bacteria: E. coli BL21; details: E. coli BL21; for MIC (μg/mL) E. coli BL21: 5×10^5 CFU/mL
Method in brief: as §1

Enterobacter cloacae = assay: MIC against Gram-negative bacteria: Enterobacter cloacae; details: for MIC (μg/mL) E. cloacae: 5×10^5 CFU/mL
Method in brief: as §1

Pseudomonas aeruginosa = assay: MIC against Gram-negative bacteria: Pseudomonas aeruginosa; details: for MIC (μg/mL) P. aeruginosa: 5×10^5 CFU/mL
Method in brief: as §1

Moraxella catarrhalis = assay: MIC against Gram-negative bacteria: Moraxella catarrhalis; details: for MIC (μg/mL) M. catarrhalis: 5×10^5 CFU/mL
Method in brief: as §1

Proteus vulgaris = assay: MIC against Gram-negative bacteria: Proteus vulgaris; details: for MIC (μg/mL) P. vulgaris: 5×10^5 CFU/mL
Method in brief: as §1

Klebsiella pneumonia = assay: MIC against Gram-negative bacteria: Klebsiella pneumonia; details: for MIC (μg/mL) K. pneumonia: 5×10^5 CFU/mL
Method in brief: as §1

Serratia marcescens = assay: MIC against Gram-negative bacteria: Serratia marcescens; details: for MIC (μg/mL) S. marcescens: 5×10^5 CFU/mL
Method in brief: as §1

Aeromonas hydrophila = assay: MIC against Gram-negative bacteria: Aeromonas hydrophila; details: for MIC (μg/mL) A. hydrophila: 5×10^5 CFU/mL
Method in brief: as §1

E. coli DH5α = assay: Antibacterial activity: MIC and growth curve against E. coli DH5α in 96-well plate; details: minimal inhibitory concentration against E. coli DH5α; 96-well plate, 5×10^5 CFU/mL, 37° C., judged after 8 h
Method in brief: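 Log-phase bacteria (OD600 ~0.5) resuspended in LB at 5×10^5 CFU/mL, exposed to recombinant protein at 50, 25, 12.5 μg/mL final in triplicate, 37 °C shaking at 175 rpm. OD600 read every 30 min; MIC is lowest concentration showing no growth.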

Citrobacter diversus = assay: MIC against Gram-negative bacteria: Citrobacter diversus; details: for MIC (μg/mL) C. diversus: 5×10^5 CFU/mL
Method in brief: as §1

[1] = P. mirabilis, 10 h cultivation at 37° C.
[2] = E. cloacae, 10 h cultivation at 37° C.
[3] = P. aeruginosa, 10 h cultivation at 37° C.
[4] = M. catarrhalis, 10 h cultivation at 37° C.
[5] = P. vulgaris, 10 h cultivation at 37° C.
[6] = K. pneumonia, 10 h cultivation at 37° C.
[7] = S. marcescens, 10 h cultivation at 37° C.
[8] = A. hydrophila, 10 h cultivation at 37° C.
[9] = C. diversus, 10 h cultivation at 37° C.

Substance	MIC (E. coli DH5α)	MIC (μg/mL) P. mirabilis (Proteus mirabilis; [1])	MIC (μg/mL) E. coli BL21 (E. coli BL21; 10 h cultivation at 37° C.)	MIC (μg/mL) E. cloacae (Enterobacter cloacae; [2])	MIC (μg/mL) P. aeruginosa (Pseudomonas aeruginosa; [3])	MIC (μg/mL) M. catarrhalis (Moraxella catarrhalis; [4])	MIC (μg/mL) P. vulgaris (Proteus vulgaris; [5])	MIC (μg/mL) K. pneumonia (Klebsiella pneumonia; [6])	MIC (μg/mL) S. marcescens (Serratia marcescens; [7])	MIC (μg/mL) A. hydrophila (Aeromonas hydrophila; [8])	MIC (μg/mL) C. diversus (Citrobacter diversus; [9])	also measured
PRT1043 (HGPNCSQECRCHNGGLCDRFTGQCRCAPGYTGDRCR; listed as Homo sapiens)	50 µg/mL	–	–	–	–	–	–	–	–	–	–	MIC (Proteus mirabilis; [1]): 12.5 µg/mL; MIC (E. coli BL21; 10 h cultivation at 37° C.): 12.5 µg/mL; MIC (Enterobacter cloacae; [2]): 25 µg/mL; MIC (Pseudomonas aeruginosa; [3]): 25 µg/mL; MIC (Moraxella catarrhalis; [4]): 25 µg/mL; MIC (Proteus vulgaris; [5]): 50 µg/mL; MIC (Klebsiella pneumonia; [6]): 50 µg/mL; MIC (Serratia marcescens; [7]): 50 µg/mL; MIC (Aeromonas hydrophila; [8]): 25 µg/mL; MIC (Citrobacter diversus; [9]): 50 µg/mL
PRT98 (DINECATPSKVSCGKFSDCWNTEGSYDCVCSPGYEPVSGAKTFKNESENTCQ; listed as Homo sapiens)	12.5 µg/mL	–	–	–	–	–	–	–	–	–	–	MIC (μg/mL) P. mirabilis (Proteus mirabilis; Proteus mirabilis, 96-well plate, 37° C., 10 h): 50 µg/mL; MIC (μg/mL) E. coli BL21 (E. coli BL21; 96-well plate, 37° C., 10 h): 50 µg/mL; MIC (μg/mL) E. cloacae (Enterobacter cloacae; Enterobacter cloacae, 96-well plate, 37° C., 10 h): 25 µg/mL; MIC (μg/mL) P. aeruginosa (Pseudomonas aeruginosa; Pseudomonas aeruginosa, 96-well plate, 37° C., 10 h): 25 µg/mL; MIC (μg/mL) M. catarrhalis (Moraxella catarrhalis; Moraxella catarrhalis, 96-well plate, 37° C., 10 h): 100 µg/mL; MIC (μg/mL) P. vulgaris (Proteus vulgaris; Proteus vulgaris, 96-well plate, 37° C., 10 h): 12.5 µg/mL; MIC (μg/mL) K. pneumonia (Klebsiella pneumonia; Klebsiella pneumonia, 96-well plate, 37° C., 10 h): 12.5 µg/mL; MIC (μg/mL) S. marcescens (Serratia marcescens; Serratia marcescens, 96-well plate, 37° C., 10 h): 50 µg/mL; MIC (μg/mL) A. hydrophila (Aeromonas hydrophila; Aeromonas hydrophila, 96-well plate, 37° C., 10 h): 50 µg/mL; MIC (μg/mL) C. diversus (Citrobacter diversus; Citrobacter diversus, 96-well plate, 37° C., 10 h): 25 µg/mL
PRT251 (FSHLCLEDHNSYCINGACAFHHELEKAICRCFTGYTGERCE; listed as Homo sapiens)	25 µg/mL	12.5 µg/mL	12.5 µg/mL	25 µg/mL	25 µg/mL	12.5 µg/mL	12.5 µg/mL	12.5 µg/mL	12.5 µg/mL	12.5 µg/mL	25 µg/mL	–
PRT151 (GCKYLSDINITRYNINCRENRACNELFHCQCDPGYAPPDCE; listed as Homo sapiens)	12.5 µg/mL	25 µg/mL	50 µg/mL	12.5 µg/mL	12.5 µg/mL	12.5 µg/mL	50 µg/mL	50 µg/mL	12.5 µg/mL	50 µg/mL	25 µg/mL	–
PRT254 (PCLEGGTCILSPKGASCNCPHPYTGDRCE; listed as Homo sapiens)	25 µg/mL	12.5 µg/mL	12.5 µg/mL	12.5 µg/mL	12.5 µg/mL	25 µg/mL	12.5 µg/mL	12.5 µg/mL	12.5 µg/mL	25 µg/mL	12.5 µg/mL	–
